Several values for one entry are separate records, joined by “and”; a condition that tells them apart may be missing. Identical values can stand only once. Like-named read-outs stand apart in the source and are kept apart here.
Tests used:
mPrP(23–230) monomer = mPrP(23–230) monomer (Mus musculus, UniProt P04925); conditions: pH 6
[1] = type: physicochemical
[2] = type: physicochemical; conditions: pH 3.7

Chain of mPrP(23–230) monomer (P04925 23-230 limits assumed): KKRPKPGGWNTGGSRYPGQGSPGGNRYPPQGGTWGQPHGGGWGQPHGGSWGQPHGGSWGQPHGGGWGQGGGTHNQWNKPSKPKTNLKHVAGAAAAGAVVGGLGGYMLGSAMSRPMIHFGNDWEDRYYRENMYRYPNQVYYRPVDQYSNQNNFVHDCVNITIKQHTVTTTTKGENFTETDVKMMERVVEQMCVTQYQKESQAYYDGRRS

Substance: Ac-NLKHVAGAAAAGAVVGGLGG-NH2 [mPrP(107–126)]
- average lag time of amyloid formation of mPrP(23–230) relative to unseeded reaction (mPrP(23–230) monomer): slightly prolonged
- cross-seeding effect on mPrP(23–230) monomer (mPrP(23–230) monomer): no seeding effect
- monomer concentration remained in solution after fibrillization ([1]; pH 7.4): 12.4 µM and 11.1 µM and 6.6 µM

Substance: Ac-YMLGSAMSRPMIHFGND-NH2 [mPrP(127–143)]
- average lag time for amyloidogenesis [2]: hardly detectable
- cross-seeding effect on mPrP(23–230) monomer (mPrP(23–230) monomer): induced immediately
- monomer concentration remained in solution after fibrillization ([1]; pH 3.7): 32.6 µM and 35.6 µM and 27.2 µM

From publication PMC3700907 (PLoS ONE, 2013)
